In patent publication US20220133747A1, “ESTROGEN RECEPTOR INHIBITORS AND USES THEROF” (The Regents of the University of California, priority 2018, published 2022):
“Also recorded” adds a separate entry of the source. Read-outs that look alike come from different tables or passages of the source.

Columns and labels:
[1] = system: immune cell subsets in 4T1 tumors; assay: Mass cytometry (CyTOF) of immune cell subsets in 4T1 tumors; format: in vivo, BALB/c mice
Protocol: Single cell suspensions were prepared from 4T1 tumors grown in BALC/c mice treated for 12 days with control (CON), 100 μg of anti-PD-L1 antibody Q3 days (PD-L1), 50 mg/kg SERD128 via oral gavage (SERD128) or combined (PD-L1+SERD128). Cells were labeled with specific antibodies and analyzed by mass cytometry (cyTOF).
Cells were labeled with specific antibodies and analyzed by mass cytometry (CyTOF).
Tumors from each mouse were harvested after 10-12 days of treatment as described above. Single cell suspensions were generated from tumors using the MACS mouse tumor dissociation kit (Miltenyi Biotech Cat. 130-096-730) following manufacturer's instructions. One million cells per tumor were resuspended in PBS and labeled with Cell-ID Cisplatin (Fluidigm, Cat. 201064) to assess for live/dead cells. For antibody labeling, we used the recommended cell surface staining procedure (Fluidigm) followed by the FoxP3/Transcription Staining Buffer Set protocol (eBiosciences™). Cells were labeled with a panel of 28 metal-conjugated antibodies to determine different immune lineages in addition to memory, trafficking, activation, and exhaustion markers (see Tables 2-3 for list of antibodies). After washing and centrifugation, cells were fixed using MaxPar Fix and Perm buffer (Fluidigm, Cat. 201067) and labelled for single cell discrimination with Cell-ID Intercalator-Ir (Fluidigm, Cat. 201192A). Samples were resuspended with 10% EQ four-element calibration beads (Fluidigm, Cat. 201078), and filtered through a 40 μm mesh filter prior to acquisition on a HELIOS' mass cytometer (Fluidigm), at a rate of 300-500 events/s.
Collected mass cytometry data was analyzed as previously described. Briefly, samples were normalized utilizing a bead standard. First, each cytometry file was processed in FLOWJO (v10.3), then manually gated for stability of signal over time, followed by exclusion of normalization beads, ratio of DNA intercalators (191Ir+vs 193Ir+), with finally single cell events (Ir193 vs event length) (FIG. 24A). After that, viable (195Pt−)CD45+ events were exported and uploaded into the X-shift (VorteX) clustering environment to obtain the k-nearest-neighbor density estimation as described before. Dimensionality reduction of unclustered data was performed using the t-stochastic neighborhood embedding (t-SNE) and PhenoGraph algorithms implemented in the Cytofkit library, supplied by BIOCONDUCTOR v.3.4 and run in RSTUDIO v.1.1.463. A fixed number of 10,000 cells were sampled without replacement from each file and combined for analysis. Resulting t-SNE plots were subsequently filtered by marker expression to visualize differences between different treatment groups. Heatmaps were generated using Z-scores based on median marker expression (excel and Prism v7).

ERα = target: T1, ERα (Homo sapiens, UniProt P03372); assay: Downregulation of ER protein, PAGE and Western immunoblot in MCF-7 cells; format: cell-based; settings: 100 nM, 4 hours, phenol-red free medium without FBS
T1 construct: endogenous in cells; host or cells: MCF-7 human breast cancer cells (ATCC)
T1 sequence (P03372 1-595): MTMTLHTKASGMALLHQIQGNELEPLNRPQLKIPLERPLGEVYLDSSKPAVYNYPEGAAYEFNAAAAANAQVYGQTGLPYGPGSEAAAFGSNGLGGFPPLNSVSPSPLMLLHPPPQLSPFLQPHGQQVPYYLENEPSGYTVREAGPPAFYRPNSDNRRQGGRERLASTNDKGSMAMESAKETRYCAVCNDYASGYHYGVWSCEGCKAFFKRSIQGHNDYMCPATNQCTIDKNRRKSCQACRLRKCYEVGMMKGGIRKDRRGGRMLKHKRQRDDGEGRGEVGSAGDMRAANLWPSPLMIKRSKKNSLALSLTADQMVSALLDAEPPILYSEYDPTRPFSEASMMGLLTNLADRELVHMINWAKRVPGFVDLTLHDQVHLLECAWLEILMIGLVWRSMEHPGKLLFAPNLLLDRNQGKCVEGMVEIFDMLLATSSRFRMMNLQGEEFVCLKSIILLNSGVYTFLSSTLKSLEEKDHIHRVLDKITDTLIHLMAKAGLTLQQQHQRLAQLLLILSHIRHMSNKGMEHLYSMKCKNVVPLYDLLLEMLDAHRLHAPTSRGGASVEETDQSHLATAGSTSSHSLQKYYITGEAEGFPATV
Protocol: FIGS. 20A-20C show biologic activity of selected SERD candidates. […] ER-positive MCF-7 cells were treated in phenol-red free RPMI 1640 without FBS and containing vehicle control (CON) or 100 nM concentrations of either fulvestrant (FX) or antiestrogens 105, 109, 121, 140, 151, 160 or SERD128 in vitro. After 4 hours, cells were harvested and processed for PAGE and Western immunoblots using ERα antibody (1D5, Thermofisher Scientific). RPL13A was used as a loading control. […] Cells were dosed with either E2 alone or with SERDs combined with E2 in phenol redfree medium with 0.1% dextran-coated charcoal-treated FBS in luminometer plates. Data are presented as relative light units (RLU) relative to that of E2 alone in three replicate assays (4 wells per replicate) f SEM. Treatment with E2 alone induced a 12-fold induction of ER-dependent luciferase activity quantified as RLU relative to vehicle control-treated samples.
MCF7 cells were plated in regular medium. After 24 hrs, cells were incubated in the presence of antiestrogens or fulvestrant for 4 hrs in phenol-red free medium without FBS. Cell lysates were prepared using RIPA buffer, and protein concentration was determined using the BCA Protein Assay Kit (PIERCE/ThermoFisher Scientific). Forty micrograms of total cell protein was resolved by 4-15% SDS-PAGE, transferred to a PVDF membrane and probed with antibody directed against ERα (1D5, 1:100, ThermoFisher cat #MA5-13191). RPL13A (dilution 1:1000, Invitrogen/ThermoFisher cat #PA5-58528) was used as loading control.

MCF-7/TMR cells = assay: Cell proliferation assay, MCF-7 with tamoxifen resistance; format: cell-based, human; settings: 10 nM with 2 nM estradiol-17β, 48 hr

Compound | total dendritic cells (CD11c+MHCII+) [1] | downregulation of ER protein (ERα protein levels) (ERα) | downregulation of ER protein (ERα protein levels) (ERα; listed as 128) | cell proliferation (% of estradiol-treated controls) (MCF-7/TMR cells) | B regulatory cells (CD19+ CD25+ CD69+, gated on CD19+) [1] | M1 macrophages (MHCII high) [1] | M2 macrophages (MHCII low) [1] | markers of CD8+ TIL activation and/or proliferation [1] | stimulatory/myeloid dendritic cells (mDCs) [1] | markers of CD8+ TIL activation and/or proliferation ([1]; listed as S128)
C[C@]12CC[C@@H]3c4ccc(O)cc4C[C@@H](CCCCCCCCC[S+]([O-])CCCC(F)(F)C(F)(F)F)[C@H]3[C@@H]1CC[C@@H]2O (some centres unmarked) [fulvestrant, reference compound] | increased the population of DCs in 4T1 tumors |  |  |  |  |  |  |  |  | 
C[C@]12C[C@H](Oc3ccc(N)c(C(F)(F)F)c3)[C@@H]3c4ccc(O)cc4CC[C@H]3[C@@H]1CC[C@@H]2O [SERD128, (8S,9S,11S,13S,14S,17S)-11-(4-Amino-3-(trifluoromethyl)phenoxy)-13-methyl-7,8,9,11,12,13,14,15,16,17-decahydro-6H-cyclopenta[a]phenanthrene-3,17-diol] | increase expression of total dendritic cells; also recorded: increased population of mDCs in 4T1 tumors as well as the total population of DCs | comparable to that of the pure antiestrogen fulvestrant | most effective in reducing ER protein levels; also recorded: comparable to that of fulvestrant | significantly blocked proliferation; also recorded: antiproliferative action | decreases expression of B regulatory cells; also recorded: decrease expression of this subpopulation | increase in the M1 tumoricidal population of macrophages; also recorded: increases the ER+M1-tumoricidal subset of macrophages | notable decrease in the M2 phenotype; also recorded: reduces the M2-phenotype | promotes enhanced proliferation and activation of CD8^+ T-cells | increase expression of total dendritic cells (DC) and their stimulatory/myeloid subgroup; also recorded: increased population of mDCs | increased
